From patent US4822780A, “Carboxamide compounds” (Otsuka Pharmaceutical Factory, Inc., priority 1987, dated 1989)

System: vascular smooth muscles (thoracic aorta)
Assay: Calcium antagonistic action in vascular smooth muscles (spiral piece of thoracic aorta, Ca2+ dose-reaction curve in presence of KCl)
Assay type: cell-based, Male Wistar rats
Settings: isolated rat aorta spiral piece, 37° C.; KCl 5×10^-2 M; CaCl2 10^-4 to 3×10^-2 M; test compound 3×10^-7 to 10^-5 M; Van Rossum method; 5 samples
Experimental: Male Wistar rats weighing about 250 g were anesthetized with ether, hit hard in the occipital region, and the both common carotid arteries were cut to let blood, and the thoracic aorta was removed. Fat tissues depositing on the extracted blood vessel were removed, and a spiral piece of 2 mm×50 mm was prepared.
This spiral piece of aort was kept at 37° C., and was suspended in an organ bath containing Ca^2+ --free Krebs--Henseleit solution ventilated with mixed gas of 95% O2 and 5% CO2 and its contraction reaction was measured in the following method by way of an isotonic transducer.
In the first place, to the spiral piece deprived of Ca^2+, CaCl2 solution of 10^-4 to 3×10^-2 M was comulatively added in the presence of KCl of 5×10^-2 M, and the dose-reaction curve by Ca^2+ was determined, and after removing Ca^2+ again, the dose-reaction curve by Ca^2+ was determined in the presence of the test compound, and from the difference of these reactions, the pA2 value of Ca^2+ antagonistic action of the test compound was calculated. The concentration of the test compound was 3×10^-7 to 10^-5 M. (The pA2 value was calculated according to the method proposed by Van Rossum, J. M., in Arch. Int. Pharmarcodyn., 143, 299-330, 1963).

Structure (SMILES) | pA2 value of Ca^2+ antagonistic action
CCOP(=O)(Cc1ccc(C(=O)Nc2ccccc2O)cc1)OCC [Example 13] | 6.52 ± 0.10
CCOP(=O)(Cc1ccc(C(=O)N(Cc2ccccc2)c2ccccc2)cc1)OCC [Example 45, 4-diethoxyphosphinylmethyl-N-benzyl-N-phenylbenzamide] | 6.75 ± 0.08
CCOP(=O)(Cc1ccc(C(=O)N(Cc2ccc([N+](=O)[O-])cc2)c2ccccc2)cc1)OCC [Example 46] | 6.07 ± 0.12
CCOP(=O)(Cc1ccc(C(=O)N(Cc2ccccc2)c2ccc(OC)cc2)cc1)OCC [Example 56, 4-diethoxyphosphinylmethyl-N-benzyl-N-(4-methoxyphenyl)benzamide] | 6.99 ± 0.11
CCOP(=O)(Cc1cccc(C(=O)N(Cc2ccc(C(=O)OC)cc2)c2ccccc2)c1)OCC [Example 74] | 6.50 ± 0.09
